Results taken from PubChem BioAssay (NCI).
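Exposure lasted 48 hours, with cells grown in 96-well plates and compounds tested at five concentrations. GI50 = concentration required for 50% inhibition of growth. Definition used: TGI = concentration required for complete inhibition of growth.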

What was measured:
Test in all cases: NCI tumour cell line growth inhibition, 48 h
[1] = test system: SW-620 colon
[2] = test system: PC-3 prostate
[3] = test system: M14 melanoma
[4] = test system: HCT-15 colon
[5] = test system: ACHN renal
[6] = test system: KM12 colon
[7] = test system: COLO 205 colon
[8] = test system: OVCAR-8 ovarian
[9] = test system: OVCAR-4 ovarian
[10] = test system: SF-539 CNS
[11] = test system: HOP-62 NSCLC
[12] = test system: CAKI-1 renal
[13] = test system: UO-31 renal
[14] = test system: UACC-62 melanoma
[15] = test system: LOX IMVI melanoma
[16] = test system: UACC-257 melanoma
[17] = test system: SF-268 CNS
[18] = test system: DU-145 prostate
[19] = test system: NCI-H226 lung
[20] = test system: SF-295 CNS
[21] = test system: 786-0 renal
[22] = test system: K-562 leukemia
[23] = test system: HT29 colon
[24] = test system: MALME-3M melanoma
[25] = test system: SNB-75 CNS
[26] = test system: MDA-MB-435
[27] = test system: EKVX NSCLC
[28] = test system: HS 578T breast
[29] = test system: NCI-H460 lung

CSc1ccc2c(c1)C(=O)c1c-2n(CCCBr)c(=O)c2cc([N+](=O)[O-])ccc12
GI50 [1]: 4.04 µM
TGI [1]: > 100 µM
GI50 [2]: 25.8 µM
TGI [2]: > 100 µM
GI50 [3]: 3.38 µM
TGI [3]: > 100 µM
GI50 [4]: 47.2 µM
TGI [4]: > 100 µM
GI50 [5]: 1.61 µM
TGI [5]: 8.4 µM
GI50 [6]: 46.1 µM
TGI [6]: > 100 µM
GI50 [7]: 17.8 µM
TGI [7]: > 100 µM
GI50 [8]: 27.6 µM
TGI [8]: > 100 µM
GI50 [9]: > 100 µM
TGI [9]: > 100 µM
GI50 [10]: 4.59 µM
TGI [10]: > 100 µM
GI50 [11]: 1.05 µM
TGI [11]: 19.6 µM
GI50 [12]: 1.09 µM
TGI [12]: 8.94 µM
GI50 [13]: 3.63 µM
TGI [13]: > 100 µM
GI50 [14]: 3.1 µM
TGI [14]: > 100 µM
GI50 [15]: 2.11 µM
TGI [15]: 41.5 µM
GI50 [16]: > 100 µM
TGI [16]: > 100 µM
GI50 [17]: 7.42 µM
TGI [17]: > 100 µM
GI50 [18]: 3.9 µM
TGI [18]: > 100 µM
GI50 [19]: 33.6 µM
TGI [19]: > 100 µM
GI50 [20]: 1.04 µM
TGI [20]: > 100 µM
GI50 [21]: 2.45 µM
TGI [21]: 10.5 µM
GI50 [22]: 3.94 µM
TGI [22]: 19.3 µM
GI50 [23]: 28.2 µM
TGI [23]: > 100 µM
GI50 [24]: 11.6 µM
TGI [24]: > 100 µM
GI50 [25]: 7.9 µM
TGI [25]: > 100 µM
GI50 [26]: 31 µM
TGI [26]: > 100 µM
GI50 [27]: > 100 µM
TGI [27]: > 100 µM
GI50 [28]: > 100 µM
TGI [28]: > 100 µM
GI50 [29]: 0.547 µM
